Source: PMC3377386 (Pharmaceutical Research, 2011)
Counter-ions that a name gives are not always drawn. Like-named read-outs stand apart in the source and are kept apart here.

Key:
[1] = I.V. dose of 3 mg/kg; cited from earlier work
[2] = hairless, guinea pig, in vivo
[3] = in seven days; a similarly done study (reference not given); cited from earlier work
[4] = for Css: one 50-MN array
[5] = MN + Solaraze® + 16% NTX·HCl, n=4

O=C1CC[C@@]2(O)[C@H]3Cc4ccc(O)c5c4[C@@]2(CCN3CC2CC2)[C@H]1O5 [NTX·HCl, naltrexone HCl]
systemic dose AUC [1]: 546 ng/mL/h | total delivery of naltrexone [2]: 2.65 mg | fraction of the total drug applied delivered through the skin [3]: less than 5% | delivered fraction of the dose ([4]; 2.65 mg of 80 mg NTX applied to the MN-treated area): less than 5% | Css ([4]; MN + 16% NTX·HCl (control, no Solaraze®), n=4): 3.4 ± 1.3 ng/mL | Tlag ([4]; MN + 16% NTX·HCl (no Solaraze®), n=4): 1.8 ± 1.5 h | duration of increased plasma levels (Css) ([4]; MN + Solaraze® + 16% NTX·HCl gel, n=4): seven | Tlag [4, 5]: 21.5 ± 12.6 h | Css [4, 5]: 7.0 ± 1.5 ng/mL | time at which NTX·HCl levels returned to baseline ([4]; control: one-time MN + 0.5 g 16% NTX·HCl, 6.7 cm^2, no Solaraze®): ≤ 60 h | flux corresponding to the steady-state concentration ([4]; from Css of 7.0 ng/ml, 6.7 cm^2 patch): approximately 16.14 nmol/cm^2/h
